2 substances from patent US20220251625A1, “NOVEL DIAGNOSTIC MARKER FOR PANCREATIC CANCER” (URTESTE S.A., priority 2019, published 2022) can be followed below.

What all share (assay type): biochemical, human
Test [1] concerns proteolytic enzymes in urine. Put plainly: RP HPLC analysis of substrate hydrolysis in urine of a person diagnosed with pancreatic cancer. The note with it: urine from a person diagnosed with pancreatic cancer. Here is the method:
A: ABZ-Thr-Thr-Ala-Arg-ANB NH2 substrate in 200 mM Tris-HCl buffer, pH 8.0. B: Hydrolysis of ABZ-Thr-Thr-Ala-Arg-ANB NH2 substrate in urine of patients diagnosed with pancreatic cancer.

For test [2], the system named is proteolytic enzymes in urine. Kind of test: Hydrolysis of chromogenic peptide substrate in urine samples, absorbance at 405 nm. Details: rate of hydrolysis of substrate: unit not given here. As to conditions: for rate of hydrolysis of substrate: triplicate, 37° C., pH 8.0, 405 nm. Here is the method:
Arabic numbers indicate the number of the selected urine sample. […] The result indicates the absence of proteolytic enzymes characteristic of pancreatic cancer.
Arabic numbers indicate the number of the selected urine sample. A similar result as described above for FIG. 1 is obtained.
The study on the application of new compounds was performed on a group of 10 patients diagnosed with pancreatic cancer. For this purpose, the compound with formula 2: ABZ-Thr-Thr-Ala-Arg-ANB-NH2 or formula 3: ABZ-Thr-Thr-Ala-Arg-pNA was dissolved in dimethyl sulfoxide (at a concentration of 0.5 mg/mL); 50 μL of this solution was mixed with 120 μl buffer (200 mM Tris-HCl, pH 8.0) and 80 μL of urine of a person with pancreatic cancer. The measurement was made in a 96-well plate designed for measuring absorbance, and each sample was analysed in triplicate at 37° C. The duration of the measurement was 60 minutes. During the measurement, the wavelength characteristic of the released chromophore (ANB-NH2 or pNA) was monitored at 405 nm (range 380-430 nm).
As a result of the measurement, the colour of the solution increased over time in all urine samples from patients diagnosed with pancreatic cancer. The observed absorbance increase over time was different for each of the tested samples.

The test system of test [3] is proteolytic enzymes in urine. Put plainly: Degree of substrate hydrolysis versus pH of the reaction environment. Set-up: degree of substrate hydrolysis: unit not given here. As to conditions: for degree of substrate hydrolysis: triplicate. How it is done: Tested pH values are indicated on the x-axis. The relationship between proteolytic activity and pH of reaction environment was assessed.

For test [4], the system named is proteolytic enzymes in urine. Put plainly: Hydrolysis of chromogenic peptide substrate in urine samples, absorbance at 405 nm. As to conditions: urine samples from healthy individuals (15 samples).
The mark [5] stands for this setting: urine sample 1, patient diagnosed with pancreatic cancer.
The mark [6] stands for this setting: urine sample 3, patient diagnosed with pancreatic cancer.
[7] abbreviates: urine sample 4, patient diagnosed with pancreatic cancer.
The mark [8] stands for this setting: urine sample 5, patient diagnosed with pancreatic cancer.
[9] abbreviates: urine sample 6, patient diagnosed with pancreatic cancer.
The mark [10] stands for this setting: urine sample 7, patient diagnosed with pancreatic cancer.
[11] abbreviates: urine sample 8, patient diagnosed with pancreatic cancer.
[12] abbreviates: urine sample 9, patient diagnosed with pancreatic cancer.
The mark [13] stands for this setting: urine sample 10, patient diagnosed with pancreatic cancer.

Several values for one entry are separate records, joined by “and”; a condition that tells them apart may be missing. Equal values may be shown once. Numbered stars: 1 amine (or outer) side, 2 acyl side, 3 side chain; on linkers, the order of the positions; unused ones are H or OH. Square brackets hold non-standard residues; d marks the D form. Ends that are not written are not given here. Benzoyl(5-NH,2-NO2) = O=C(c1cc(N[*:1])ccc1[N+](=O)[O-])[*:2]; 2Abz = Nc1ccccc1C(=O)O

Consider ABZ-Thr-Thr-Ala-Arg-pNA, for which the “cleavage products by RP HPLC” value in test [1] is “break down into the ABZ-Thr-Thr-Ala-Arg peptide fragment and chromophore”. The “rate of hydrolysis of substrate” value in test [2] (setting [5]) was 0.22 and 0.189 and 0.2109; in test [2] (urine sample 2, patient diagnosed with pancreatic cancer), 0.07457 and 0.07826 and 0.07178; in test [2] (setting [6]), 0.01632 and 0.01669 and 0.01723; in test [2] (setting [7]) it was 0.01727 and 0.01636 and 0.01044; in test [2] (setting [8]) it was 0.05734 and 0.05944 and 0.06152; in test [2] (setting [9]) it was 0.05416 and 0.05476 and 0.05487. In addition, the “rate of hydrolysis of substrate” value was 0.02666 and 0.02332 and 0.025 in test [2] (setting [10]); 0.02045 and 0.02486 and 0.02345 in test [2] (setting [11]); 0.01947 and 0.01797 and 0.01896 in test [2] (setting [12]); 0.1167 and 0.1146 and 0.1052 in test [2] (setting [13]).

Consider “ABZ-Thr-Thr-Ala-Arg-ANB-NH2 ([2Abz]TTAR-{Benzoyl(5-NH,2-NO2)-NH2}) [chromogenic peptide; ABZ is 2-aminobenzoic acid, ANB-NH2 is amide of 5-amino-2-nitrobenzoic acid]”, for which, in test [3], the “relationship between proteolytic activity and pH of reaction environment” value is “maximum activity at alkaline pH”. Besides, the “degree of substrate hydrolysis” value in test [3] (pH 3) was 0; in test [3] (pH 4), 0; in test [3] (pH 5), 0; in test [3] (pH 6), 0; in test [3] (pH 7) it was 0; in test [3] (pH 8), 0.07661 and 0.07534 and 0.09735. For the same substance, in test [3] (pH 9), the “degree of substrate hydrolysis” value turned out to be 0. For the same substance, in test [1], the “cleavage products by RP HPLC” value was “break down into the ABZ-Thr-Thr-Ala-Arg peptide fragment and chromophore”. The “hydrolysis of the substrate / increase of colour (absorbance) over time” value in test [2] (urine of patients diagnosed with pancreatic cancer (samples 1-10)) was “all samples 1-10 disintegrated”. Also, the “rate of hydrolysis of substrate” value in test [2] (setting [5]) is 0.128 and 0.152 and 0.2109; in test [2] (setting [6]), 0.07457 and 0.07826 and 0.07178; in test [2] (setting [7]), 0.03727 and 0.03636 and 0.03044; in test [2] (setting [8]), 0.02734 and 0.01944 and 0.02312; in test [2] (setting [9]) it was 0.04416 and 0.04476 and 0.04487; in test [2] (setting [10]) it was 0.02666 and 0.02332 and 0.025. The “rate of hydrolysis of substrate” value in test [2] (setting [11]) was 0.02045 and 0.02486 and 0.02345; in test [2] (setting [12]), 0.00647 and 0.00797 and 0.00596; in test [2] (setting [13]), 0.08668 and 0.1146 and 0.08522. Moreover, the “increase in absorbance (hydrolysis of the test compound)” value in test [4] was “does not lead to an increase in absorbance”.
